In publication PMC10279640 (Nature Communications, 2023):
Square brackets hold non-standard residues; d marks the D form. Peptide text beside a SMILES is read from it. sY = N[C@@H](Cc1ccc(OS(=O)(=O)O)cc1)C(=O)O

What was measured:
PvDBP-RII = PvDBP-RII (Plasmodium vivax, UniProt P22290, S353A/T257A/T422A); test: biochemical; type: binding
[1] = test system: P. knowlesi PvDBP^OR/PkDBPβγ^KO; conditions: PvDBP-expressing P. knowlesi, at the concentrations tested
[2] = test system: P. knowlesi wild-type A1-H.1

Compound | Kd (PvDBP-RII) [nM] | growth inhibition (in words) [1] | growth inhibition (in words) [2]
CC(=O)N[C@@H](CCC(N)=O)C(=O)N[C@@H](CC(C)C)C(=O)N[C@@H](CC(=O)O)C(=O)N[C@@H](Cc1ccccc1)C(=O)N[C@@H](CCC(=O)O)C(=O)N[C@@H](CC(=O)O)C(=O)N[C@H](C(=O)N[C@@H](Cc1c[nH]c2ccccc12)C(=O)N[C@@H](CC(N)=O)C(=O)N[C@@H](CO)C(=O)N[C@@H](CO)C(=O)N[C@@H](Cc1ccc(OS(=O)(=O)O)cc1)C(=O)NCC(=O)N[C@H](C(=O)N[C@@H](CC(N)=O)C(=O)N[C@@H](CC(=O)O)C(=O)N[C@@H](CO)C(=O)N[C@@H](Cc1ccccc1)C(=O)N1CCC[C@H]1C(=O)N[C@@H](CC(=O)O)C(=O)NCC(=O)N[C@@H](CC(=O)O)C(=O)N[C@@H](Cc1ccc(O)cc1)C(=O)N[C@@H](CC(=O)O)C(=O)N[C@@H](C)C(=O)N[C@@H](CC(N)=O)C(=O)N[C@@H](CC(C)C)C(=O)N[C@@H](CCC(=O)O)C(=O)N[C@@H](CC(C)C)C(N)=O)C(C)C)C(C)C [Y30-S] (Ac-QLDFEDVWNSS[sY]GVNDSFPDGDYDANLEL-NH2) | 552 | – | –
Ac-QLDFEDVWNSSYGVNDSFPDGDYDANLEL-NH2 [non-sulfated] | – | no growth inhibition observed | no inhibition observed
